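Following 48 hours of exposure in 96-well plates, responses at five concentrations were used to interpolate endpoints linearly. Here, GI50 denotes the concentration required for 50% inhibition of growth. The concentration for full growth arrest is given as TGI.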
What was measured:
Assay in all cases: DTP human tumour cell line panel, 48 h
A549 NSCLC = system: A549 NSCLC
OVCAR-8 ovarian = system: OVCAR-8 ovarian
COLO 205 colon = system: COLO 205 colon
NCI-H23 lung = system: NCI-H23 lung
IGROV1 ovarian = system: IGROV1 ovarian
RPMI-8226 leukemia = system: RPMI-8226 leukemia
KM12 colon = system: KM12 colon
HL-60(TB) leukemia = system: HL-60(TB) leukemia
BT-549 breast = system: BT-549 breast
SNB-19 CNS = system: SNB-19 CNS
SK-MEL-5 melanoma = system: SK-MEL-5 melanoma
CAKI-1 renal = system: CAKI-1 renal
MDA-MB-435 = system: MDA-MB-435
SK-MEL-2 melanoma = system: SK-MEL-2 melanoma
OVCAR-4 ovarian = system: OVCAR-4 ovarian
SF-295 CNS = system: SF-295 CNS
TK-10 renal = system: TK-10 renal
RXF 393 renal = system: RXF 393 renal
MOLT-4 leukemia = system: MOLT-4 leukemia
SR leukemia = system: SR leukemia
HOP-62 NSCLC = system: HOP-62 NSCLC
UACC-257 melanoma = system: UACC-257 melanoma
UACC-62 melanoma = system: UACC-62 melanoma
NCI/ADR-RES ovarian = system: NCI/ADR-RES ovarian
HT29 colon = system: HT29 colon
786-0 renal = system: 786-0 renal
M14 melanoma = system: M14 melanoma
ACHN renal = system: ACHN renal
MALME-3M melanoma = system: MALME-3M melanoma
K-562 leukemia = system: K-562 leukemia
EKVX NSCLC = system: EKVX NSCLC
LOX IMVI melanoma = system: LOX IMVI melanoma
HCC-2998 colon = system: HCC-2998 colon
SF-539 CNS = system: SF-539 CNS
HCT-116 colon = system: HCT-116 colon
SK-OV-3 ovarian = system: SK-OV-3 ovarian
OVCAR-5 ovarian = system: OVCAR-5 ovarian
U251 CNS = system: U251 CNS
SW-620 colon = system: SW-620 colon
DU-145 prostate = system: DU-145 prostate
MDA-MB-231 breast = system: MDA-MB-231 breast
HOP-92 NSCLC = system: HOP-92 NSCLC
SK-MEL-28 melanoma = system: SK-MEL-28 melanoma
MCF7 breast = system: MCF7 breast
HCT-15 colon = system: HCT-15 colon
T-47D breast = system: T-47D breast
SN12C renal = system: SN12C renal
NCI-H460 lung = system: NCI-H460 lung
NCI-H522 lung = system: NCI-H522 lung
PC-3 prostate = system: PC-3 prostate
OVCAR-3 ovarian = system: OVCAR-3 ovarian
A498 renal = system: A498 renal
SF-268 CNS = system: SF-268 CNS
NCI-H226 lung = system: NCI-H226 lung
CCRF-CEM leukemia = system: CCRF-CEM leukemia
SNB-75 CNS = system: SNB-75 CNS
UO-31 renal = system: UO-31 renal
HS 578T breast = system: HS 578T breast

With COc1cc2cc(NCc3cccc(Cl)c3)nc(C)c2cc1OC the GI50 (A549 NSCLC) was 3.21 µM, the TGI (A549 NSCLC) was 37.6 µM and the GI50 (OVCAR-8 ovarian) was 3.04 µM. The TGI (OVCAR-8 ovarian) was 23.6 µM, the GI50 (COLO 205 colon) was 1.62 µM and the TGI (COLO 205 colon) was 9.3 µM. The GI50 (NCI-H23 lung) was 0.913 µM, the TGI (NCI-H23 lung) was 13.9 µM and the GI50 (IGROV1 ovarian) was 1.32 µM. It also gave a TGI (IGROV1 ovarian) of 13.9 µM, a GI50 (RPMI-8226 leukemia) of 0.539 µM and a TGI (RPMI-8226 leukemia) of 23.4 µM. The GI50 (KM12 colon) was 2.62 µM, the TGI (KM12 colon) was 15.8 µM and the GI50 (HL-60(TB) leukemia) was 2.95 µM. For the same compound, the TGI (HL-60(TB) leukemia) was 55.9 µM, the GI50 (BT-549 breast) was 1.47 µM and the TGI (BT-549 breast) was 8.96 µM. The GI50 (SNB-19 CNS) was 2.12 µM, the TGI (SNB-19 CNS) was 31.8 µM and the GI50 (SK-MEL-5 melanoma) was 3.27 µM. For the same compound, the TGI (SK-MEL-5 melanoma) was 13.7 µM, the GI50 (CAKI-1 renal) was 2.7 µM and the TGI (CAKI-1 renal) was 24.4 µM. It also gave a GI50 (MDA-MB-435) of 0.969 µM, a TGI (MDA-MB-435) of 6.26 µM and a GI50 (SK-MEL-2 melanoma) of 1.56 µM. It also gave a TGI (SK-MEL-2 melanoma) of 12.6 µM, a GI50 (OVCAR-4 ovarian) of 1.83 µM and a TGI (OVCAR-4 ovarian) of 25.4 µM. It also gave a GI50 (SF-295 CNS) of 0.513 µM, a TGI (SF-295 CNS) of 16.8 µM and a GI50 (TK-10 renal) of 4.15 µM. For the same compound, the TGI (TK-10 renal) was 36.6 µM, the GI50 (RXF 393 renal) was 3.57 µM and the TGI (RXF 393 renal) was 16.3 µM. The GI50 (MOLT-4 leukemia) was 3.21 µM, the TGI (MOLT-4 leukemia) was 30.4 µM and the GI50 (SR leukemia) was 1.66 µM. For the same compound, the TGI (SR leukemia) was 44.9 µM, the GI50 (HOP-62 NSCLC) was 0.862 µM and the TGI (HOP-62 NSCLC) was 22.2 µM. For the same compound, the GI50 (UACC-257 melanoma) was 4.61 µM, the TGI (UACC-257 melanoma) was 19.3 µM and the GI50 (UACC-62 melanoma) was 0.498 µM. The TGI (UACC-62 melanoma) was 5.41 µM, the GI50 (NCI/ADR-RES ovarian) was 2.02 µM and the TGI (NCI/ADR-RES ovarian) was 22.3 µM. The GI50 (HT29 colon) was 0.462 µM, the TGI (HT29 colon) was 11.4 µM and the GI50 (786-0 renal) was 1.7 µM. The TGI (786-0 renal) was 20.4 µM, the GI50 (M14 melanoma) was 0.52 µM and the TGI (M14 melanoma) was 10.1 µM. It also gave a GI50 (ACHN renal) of 2.46 µM, a TGI (ACHN renal) of 23.1 µM and a GI50 (MALME-3M melanoma) of 10.3 µM. For the same compound, the TGI (MALME-3M melanoma) was 23.8 µM, the GI50 (K-562 leukemia) was 1.68 µM and the TGI (K-562 leukemia) was 19.8 µM. For the same compound, the GI50 (EKVX NSCLC) was 3.52 µM, the TGI (EKVX NSCLC) was 36.5 µM and the GI50 (LOX IMVI melanoma) was 0.442 µM. For the same compound, the TGI (LOX IMVI melanoma) was 4.36 µM, the GI50 (HCC-2998 colon) was 2.27 µM and the TGI (HCC-2998 colon) was 14.5 µM. It also gave a GI50 (SF-539 CNS) of 1.37 µM, a TGI (SF-539 CNS) of 7.54 µM and a GI50 (HCT-116 colon) of 0.532 µM. For the same compound, the TGI (HCT-116 colon) was 9.63 µM, the GI50 (SK-OV-3 ovarian) was 4.94 µM and the TGI (SK-OV-3 ovarian) was 33.5 µM. It also gave a GI50 (OVCAR-5 ovarian) of 1.5 µM, a TGI (OVCAR-5 ovarian) of 25.4 µM and a GI50 (U251 CNS) of 2.4 µM. For the same compound, the TGI (U251 CNS) was 16 µM, the GI50 (SW-620 colon) was 1.93 µM and the TGI (SW-620 colon) was 12.6 µM. The GI50 (DU-145 prostate) was 5.41 µM, the TGI (DU-145 prostate) was 20.9 µM and the GI50 (MDA-MB-231 breast) was 1.18 µM. For the same compound, the TGI (MDA-MB-231 breast) was 16.6 µM, the GI50 (HOP-92 NSCLC) was 0.597 µM and the TGI (HOP-92 NSCLC) was 14.3 µM. For the same compound, the GI50 (SK-MEL-28 melanoma) was 0.865 µM, the TGI (SK-MEL-28 melanoma) was 5.42 µM and the GI50 (MCF7 breast) was 4.72 µM. The TGI (MCF7 breast) was 23 µM, the GI50 (HCT-15 colon) was 2.83 µM and the TGI (HCT-15 colon) was 19.9 µM. The GI50 (T-47D breast) was 0.459 µM, the TGI (T-47D breast) was 9.31 µM and the GI50 (SN12C renal) was 2.21 µM. The TGI (SN12C renal) was 17.4 µM, the GI50 (NCI-H460 lung) was 1.27 µM and the TGI (NCI-H460 lung) was 14.6 µM. The GI50 (NCI-H522 lung) was 1.01 µM, the TGI (NCI-H522 lung) was 10.4 µM and the GI50 (PC-3 prostate) was 3.14 µM. For the same compound, the TGI (PC-3 prostate) was 23.7 µM, the GI50 (OVCAR-3 ovarian) was 3.72 µM and the TGI (OVCAR-3 ovarian) was 16.3 µM. For the same compound, the GI50 (A498 renal) was 1.17 µM, the TGI (A498 renal) was 11.6 µM and the GI50 (SF-268 CNS) was 2.97 µM. The TGI (SF-268 CNS) was 23.9 µM, the GI50 (NCI-H226 lung) was 4.35 µM and the TGI (NCI-H226 lung) was 26.3 µM. The GI50 (CCRF-CEM leukemia) was 2.54 µM, the TGI (CCRF-CEM leukemia) was > 100 µM and the GI50 (SNB-75 CNS) was 2.83 µM. It also gave a TGI (SNB-75 CNS) of 19.4 µM, a GI50 (UO-31 renal) of 0.678 µM and a TGI (UO-31 renal) of 14.4 µM. The GI50 (HS 578T breast) was 4.87 µM and the TGI (HS 578T breast) was 56.7 µM.

From PubChem BioAssay (NCI)
